Experimental data from ChEMBL document CHEMBL1126915, “Solvent-dependent conformation and hydrogen-bonding capacity of cyclosporin A: evidence from partition coefficients and molecular dynamics simulations” (J Med Chem, 1993).

Tests used:
Conditions in all cases: octanol/water
physchem [1] = assay: physchem
Description: Partition coefficient (logP)

physchem [2] = assay: physchem; remark: listed apart in the source
Description: Partition coefficient (logP)

[3] = Partition coefficient of compound was measured in heptane/water system

SMILES	logP (physchem [1])	logP (physchem [2])	Log Phep [3]
CC(=O)Nc1ccccc1F	0.96	0.96	-0.69
NC(=O)c1ccccc1 [BENZAMIDE]	–	–	-2.45
O=[N+]([O-])c1ccccc1O [NITROPHENOLATE]	1.85	1.68	1.04
O=[N+]([O-])c1ccc(O)cc1 [P-NITROPHENOL]	1.85	1.77	-2.11
Oc1ccccc1 [PHENOL]	–	–	-0.82

Continued, values first:

logP (physchem [1])	logP (physchem [2])	Log Phep [3]	SMILES
2.86	1.59	< -3	O=C1N[C@@H](Cc2ccccc2)C(=O)N[C@H]1Cc1ccccc1
0.5	0.64	-1.47	NC(=O)c1ccccc1F
1.61	1.47	-1.57	CC(=O)Nc1ccc(F)cc1
2.19	1.05	< -3	O=C1N[C@H](Cc2ccc(O)cc2)C(=O)N[C@H]1Cc1c[nH]c2ccccc12
1	0.96	-2.34	NC(=O)c1ccc(F)cc1
–	–	-1.54	CC(=O)Nc1ccccc1 [ACETANILIDE]
